Experimental data reported in PMC10955247, “In vivo screening for toxicity-modulating drug interactions identifies antagonism that protects against ototoxicity in zebrafish” (Frontiers in Pharmacology, 2024).
“Also recorded” adds a separate entry of the source. Structures can show the parent of a compound that is named as a salt.

Columns and labels:
[1] = system: zebrafish lateral line hair cells; experiment: PEPITA quantification of ototoxicity in YO-PRO-1-stained AB zebrafish larvae; type: in vivo; conditions: for HC inhibition: in the absence of AZM, 25 μM CAP, 600 μM CIS; for EC50 shift: ototoxin co-administered with AZM vs alone; for EC75 shift: ototoxin co-administered with azithromycin (AZM) vs administered alone; for interaction with neomycin in pairwise screen (wEOB): pairwise screen of NEO against 13 compounds; for ototoxic interaction with AZM: co-administration with AZM; for shift toward antagonism in lateral line HC damage as compared to inhibition of the bacterial species on average: interaction with AZM, zebrafish wEOB vs average of E. coli, M. abscessus, S. aureus; for ototoxic interaction with clarithromycin (CLM): preliminary experiments
Protocol: Therefore, at 5 dpf, larvae were transferred to 12-well plates (5–11 fish per well, 1 well per condition) containing the relevant compound or combination diluted with ICS water, or ICS water alone or high-dose neomycin to serve as controls. Unless otherwise noted, fish were exposed to drug (either an individual compound or a pairwise combination of compounds) for 4 h, as a balance between longer exposure times for accommodating varied kill kinetics and shorter exposure times for technical tractability. Treatments with multiple drugs involved co-administering a prepared solution consisting of both drugs with defined concentrations in ICS water.
Fluorescence microscopy was performed using a Keyence BZ-X800 microscope imaging system, which enables high-throughput semi-automated imaging of 96-well plates.
Each image was masked using automated object detection to include only the fish itself. Manual masks were created on occasion for avoidance of fluorescent contamination, adjusted segmenting for myo6b::gfp fish to remove inner ear HC fluorescence, or exclusion of dead or damaged fish. Each fish was then adjusted for autofluorescence using the fluorophore-free red channel and scored based on the sum of green fluorescence pixel values surrounding 10 of the top 15 brightest pixels in the masked image (Figures 1B–E). These scores were standardized by comparison with the median score of wells containing untreated fish and a score representing no remaining HC fluorescence, both derived for each plate.
Wells where the expected response ( Ra×Rb ) and observed response ( Rab ) were both less than 10% or greater than 90% were excluded from aggregation to reduce the effect of our choice of dose range. The remaining wells were summarized by averaging into a composite interaction score for the combination; we refer to this metric as the “windowed excess over Bliss” (wEOB).

[2] = system: zebrafish lateral line hair cells; experiment: Uptake of TexasRed-conjugated neomycin (NEO-TR) into lateral line HCs; type: in vivo, Danio rerio; conditions: for accumulation of NEO-TR within lateral line HCs: NEO-TR 50 μM, 30 min, co-administered AZM 190 µM or BZM 50 µM, myo6b::gfp larvae; for Details (uptake inhibitor mechanism): Table S1, by means other than MET channel inhibition (this study)
Description: To further explore the mechanism of macrolide and aminoglycoside antagonism, we fluorescently labeled the aminoglycosides neomycin and gentamicin with Texas Red-X succinimidyl ester to track HC uptake with and without macrolide treatment (Table 1). To avoid breakdown of fluorescent vital dyes over time, we used larvae with the transgene Tg(myo6b:EGFP); myo6b::gfp, that expressed GFP in their HCs. Drug-induced injury was quantified by loss of fluorescence in HCs. Fish were exposed to the fluorescently-labeled drug with or without macrolide co-administration for 30 min, before being washed in fresh ICS water and anesthetized with 675 µM tricaine. Five fish per condition were transferred to 96-well plates for imaging, as per the drug response testing experiments, while another five were euthanized on ice for 20 min, then fixed in 2% paraformaldehyde for 1 hour at room temperature, to prepare for confocal microscopy. Samples were prepared and GFP fluorescence was acquired following the same confocal imaging procedure as described in Section 2.3; TexasRed fluorescence was acquired with a 595 nm laser and 675/75 emission filter.
For the fish transferred to 96-well plates for imaging, fluorescence microscopy was performed using the Keyence BZ-X800. Using the GFP filter and a TexasRed Filter (630/75 nm emission, 560/40 nm excitation), each myo6b::gfp fish was imaged under a ×2 objective to capture the whole organism in brightfield, green, and red fluorescence channels. Each fish was then imaged under a ×40 objective with z-stacking to track the uptake of the fluorescently labeled aminoglycoside into the HCs in the head of the fish.

[3] = system: MET channel; experiment: FM1-43 uptake quantification in lateral line HCs (MET channel activity); type: in vivo, Danio rerio; conditions: AZM 190 µM, BZM 50 µM, 30 min, myo6b::gfp larvae
Protocol: FM1-43 experiments were performed with myo6b::gfp fish, raised to 5 dpf as above. Fish were exposed to drug conditions for 30 min, with 4 µM FM1-43 stain added into the drug treatment solution at minute 29, for a 1-min co-treatment stain exposure followed by simultaneous washout of all drugs and stain in fish water and anesthesia in 675 µM tricaine (selection of staining concentration and exposure duration was informed by ([Hernandez et al., 2006]; [Van Trump et al., 2010]; [Thomas et al., 2013]; [Monroe et al., 2016]; [Hailey et al., 2017]; [Majumder et al., 2017]; [Rocha-Sanchez et al., 2018]; [Stawicki et al., 2019]; [Parkinson and Stawicki, 2021]; [Lee et al., 2022]; [Derudas et al., 2023]; [Schrauwen et al., 2023])). Four to seven fish per condition were transferred to 96-well plates for imaging. Using the Keyence BZ-X800 with GFP filter and a custom filter (605/70 nm emission, 470/40 nm excitation), each fish was imaged with a ×2 objective in brightfield and green and red fluorescence channels as above. FM1-43 uptake was validated using benzamil, a known uptake inhibitor ([Rusch et al., 1994]).

[4] = system: zebrafish lateral line hair cells; experiment: Lateral line hair cell intracellular calcium imaging and cell death; type: in vivo
Description: For calcium testing, zebrafish expressing HC-specific GCaMP targeted to the inner mitochondrial matrix were crossed with fish expressing a HC specific calcium indicator to create double-transgenic embryos (Tg (myo6b:mitoGCaMP3;myo6b:cytoRGECO), Table 1) with both green fluorescent mitochondrial calcium and red fluorescent cytosolic calcium indicators, then raised as described previously ([McQuate et al., 2023]). Zebrafish embryos were collected from 2-h spawning periods and raised in Petri dishes in embryo medium (EM: 14.97 mM NaCl, 500 μM KCl, 42 µM Na2HPO4, 150 µM KH2PO4, 1 mM CaCl2 dehydrate, 1 mM MgSO4, 0.714 mM NaHCO3, pH 7.2) at a density of 60 larvae per […] dish, in a dark 28.5°C incubator until 5 dpf. Larvae were screened for indicator expression at 4 dpf.
Calcium imaging was performed using an inverted Marianas spinning disk confocal system (Intelligent Imaging Innovations, 3i) with an Evolve 10 MHz EMCCD camera (Photometrics) and a Zeiss C-Apochromat 63x/1.2 numerical aperture water objective. Larvae were 5-6 dpf at the time of imaging. Larvae were first anesthetized in embryo media containing 800 µM tricaine, then stabilized on their sides under a harp, so that posterior neuromasts were exposed to the surrounding media. Imaging was performed at ambient temperature, approximately 25°C. GCaMP fluorescence was acquired with a 488 nm laser and 535/30 emission filter, with an exposure time of 100 ms, and RGECO fluorescence was acquired with a 561 nm laser and 617/73 emission filter and exposure time of 200 ms. Images were taken every 2 minutes as z-stacks through neuromasts in 2 µm steps. Neomycin and azithromycin were dissolved as a 4X stock in EM (described in Section 2.1: Zebrafish Husbandry), then added to the bath to achieve final working concentration after a 10-min baseline. Imaging of neuromasts continued for 50 min. Images were analyzed in ImageJ. Mean fluorescence intensity was measured for ROIs of individual randomly selected HCs (2–3 HCs per NM, see example ROI in Figure 4). For each HC, values were normalized to the average of baseline using Microsoft Excel.

With `N.N.[Cl][Pt][Cl]` [Cisplatin (CIS), Cisplatin] the HC inhibition [1] was 81%, the EC50 shift [1] was 1.4 fold and the EC75 shift [1] was 1.8-fold. For the same molecule, the EC75 shift ([1]; listed as CIS) was 1.8 fold.

With `NC(=NCc1ccccc1)NC(=O)c1nc(Cl)c(N)nc1N` [BZM, Benzamil] the “accumulation of NEO-TR within lateral line HCs” value [2] was “inhibition of NEO-TR uptake”, the “interaction with neomycin in pairwise screen (wEOB)” value [1] was “deviate toward antagonism” and the “FM1-43 uptake into lateral line HCs” value [3] was “does significantly reduce FM1-43 uptake; also recorded: significant inhibition of FM1-43 uptake”.

With `NC[C@H]1O[C@H](O[C@H]2[C@H](O)[C@@H](O[C@H]3O[C@H](CO)[C@@H](O)[C@H](N)[C@H]3O)[C@H](N)C[C@@H]2N)[C@H](O)[C@@H](O)[C@@H]1O` [Kanamycin (KAN), Kanamycin sulfate] the “ototoxic interaction with AZM” value [1] was “otoprotective antagonistic interactions”, the “shift toward antagonism in lateral line HC damage as compared to inhibition of the bacterial species on average” value [1] was 45 %pt and the EC75 shift [1] was >16-fold. The “ototoxic interaction with clarithromycin (CLM)” value (“ototoxic interaction … (CLM)” below) [1] was “antagonistic interactions”.

For `CNC(C)C1CCC(N)C(OC2C(N)CC(N)C(OC3OCC(C)(O)C(NC)C3O)C2O)O1` (stereo not shown) [Gentamicin (GEN), Gentamicin sulfate], the “ototoxic interaction with AZM” value [1] was “otoprotective antagonistic interactions”, the “shift toward antagonism in lateral line HC damage as compared to inhibition of the bacterial species on average” value [1] was 37 %pt and the EC75 shift [1] was 13-fold. The “ototoxic interaction … (CLM)” value [1] was “antagonistic interactions”.

For Capreomycin sulfate [Capreomycin (CAP)], the HC inhibition [1] was 90%, the EC50 shift [1] was 1.9 fold and the EC75 shift [1] was 2.8-fold. For the same molecule, the EC75 shift ([1]; listed as CAP) was 2.8 fold.

`CC[C@H]1OC(=O)[C@H](C)[C@@H](O[C@H]2C[C@@](C)(OC)[C@@H](O)[C@H](C)O2)[C@H](C)[C@@H](O[C@@H]2O[C@H](C)C[C@H](N(C)C)[C@H]2O)[C@](C)(O)C[C@@H](C)C(=O)[C@H](C)[C@@H](O)[C@]1(C)O` [Erythromycin] was tested, and the “Details (uptake inhibitor mechanism)” value [2] was “Prevents neomycin uptake” and the “otoprotection against aminoglycoside ototoxicity during co-administration” value ([1]; macrolide co-administered with aminoglycosides) was “antagonistic otoprotection broadly against aminoglycoside ototoxicity”.

`NCC[C@H](O)C(=O)N[C@@H]1C[C@H](N)[C@@H](O[C@H]2O[C@H](CN)[C@@H](O)[C@H](O)[C@H]2O)[C@H](O)[C@H]1O[C@H]1O[C@H](CO)[C@@H](O)[C@H](N)[C@H]1O` [Amikacin (AMK), Amikacin sulfate] was tested, and the “ototoxic interaction with AZM” value [1] was “otoprotective antagonistic interactions”, the “shift toward antagonism in lateral line HC damage as compared to inhibition of the bacterial species on average” value [1] was 31 %pt and the EC75 shift [1] was 8-fold. For the same molecule, the “ototoxic interaction … (CLM)” value [1] was “antagonistic interactions”.

`NC[C@H]1O[C@H](O[C@H]2[C@H](O)[C@@H](O[C@H]3O[C@H](CO)[C@@H](O)[C@H](N)[C@H]3O)[C@H](N)C[C@@H]2N)[C@H](N)C[C@@H]1O` [Tobramycin (TOB), Tobramycin] was tested, and the “ototoxic interaction with AZM” value [1] was “otoprotective antagonistic interactions”, the “shift toward antagonism in lateral line HC damage as compared to inhibition of the bacterial species on average” value [1] was 15 %pt and the EC75 shift [1] was >16-fold.

In the case of `CC[C@H]1OC(=O)[C@H](C)[C@@H](O[C@H]2C[C@@](C)(OC)[C@@H](O)[C@H](C)O2)[C@H](C)[C@@H](O[C@@H]2O[C@H](C)C[C@H](N(C)C)[C@H]2O)[C@](C)(O)C[C@@H](C)CN(C)[C@H](C)[C@@H](O)[C@]1(C)O` [Azithromycin, Azithromycin dihydrate], the “accumulation of NEO-TR within lateral line HCs” value ([2]; listed as AZM) is reported as “inhibition of NEO-TR uptake; also recorded: reduced HC accumulation of NEO-TR”, the “Details (uptake inhibitor mechanism)” value [2] is reported as “Prevents neomycin uptake” and the “HC cell death (observation)” value ([4]; NEO 50 µM, AZM 190 µM, calcium imaging) is reported as “low levels of cell death”. The “HC mitochondrial and cytoplasmic calcium response” value ([4]; NEO 50 µM, AZM 190 µM, mitoGCaMP3, cytoRGECO larvae) was “occasionally observed increases in mitochondrial calcium”, the cells that survived ([4]; calcium imaging) was 24/25 and the “RFU remaining on average” value ([1]; 380µM AZM alone, aggregate dose response, AB and myo6b::gfp fish) was “Approximately 65%”. The “protection against NEO and GEN ototoxicity by co-administration” value ([1]; 1 h (acute) and 4 h (extended) treatment, conditions in which monotherapy induced significant damage) was “significant protection”, the “RFU (residual HC fluorescence)” value ([1]; AZM 380 μM, NEO 0 μM, 4 h) was 48% and the “protection from CAP-associated damage by co-administration” value ([1]; capreomycin) was “significant but less pronounced protection”. For the same molecule, the “protection against damage caused by higher doses of CIS by co-administration” value ([1]; cisplatin) was “significant but modest protection”, the “interaction with neomycin in pairwise screen (wEOB)” value [1] was “one of the strongest antagonizing compounds” and the “FM1-43 uptake into lateral line HCs” value ([3]; listed as AZM) was “does not significantly hinder FM1-43 uptake; also recorded: did not significantly change FM1-43 accumulation in HCs”.
